Assay results: patent US20060240037A1, “Methods and compositions for the treatment and prevention of degenerative joint disorders” (priority 2003, published 2006)
Where a name gives a salt, the structure may show the parent alone.

Tested on: lubricin
Format: cell-based
Conditions: lubricin expression; primary human synovial fibroblasts; cells lysed after 48-72 hours; each supplement in 6 wells
Description: To identify substances having the ability to lubricate synovial joints, we first screened a library of substances for the ability to induce expression and secretion of endogenous lubricin in cultured synovial fibroblasts. A library of nutritional supplements containing 175 natural compounds was made using a natural compound collection. Each supplement was dissolved in water to an approximate concentration of 10 mM. 96-well daughter plates were made and plates were stored at −20° C.
Human synovial fibroblasts were plated the evening of the first day of the assay and grown overnight. In the morning of day 2, a supplement solution was added to each well of the 96-well plate. Each supplement was tested in 6 different wells to provide enough separate measurements to allow a statistical analysis of the results of the assay. After 48-72 hours, cells were lysed using a non-ionic detergent and supernatants containing cellular extracts were collected. Each supernatant was assayed for lubricin expression using any of the two methods described below.
We have developed two methods to measure the expression of lubricin, both of which are based on a sandwich assay. In the first sandwich assay, concanavilin A (a lectin) is used to capture lubricin while peanut agglutinin (a lectin) is used to detect proteins secreted by synovial fibroblasts. In contrast, the second assay relies on a rabbit polyclonal antibody for both the capture and detection of lubricin secreted by fibroblasts. In both assays, purified lubricin was used as a calibrator.
A substance that raised the level of measured lubricin in a significant manner when analyzed by t-test was considered a potentially efficacious substance useful for the present invention. All significant results were repeated in two additional experiments. […] In this regard, the 16 compounds that increased lubricin in the lectin-based assay were the same 16 compounds that increased lubricin levels in the antibody-based assay. […] Compounds that increase lubricin expression in synovial fibroblasts are indicated in Table 1 and the level of increase in lubricin expression is shown in Table 2 and FIG. 2.
Substances from the nutritional supplement library were screened for their ability to stimulate lubricin expression in primary human synovial fibroblasts. Cells were cultured in the presence or absence of each substance and lubricin expression was measured using the two detection assays discussed below.
In both assays, the cellular content of synovial cells was extracted as follows. Following the removal of culture media, cells were washed twice with D-PBS. Cells were first incubated in 500 μL of 1% Triton in D-PBS for five minutes and then mechanically disrupted using a pipette to ensure that all cells detach from the plates. The Triton solution containing the cells was transferred to an eppendorf and stored on ice. Samples were sonicated for three seconds and centrifuged for five minutes. The supernatant containing the cellular extracts was transferred to a fresh tube and tested for lubricin expression.

| Molecule | Percent stimulation relative to untreated control Adjusted for background |
| --- | --- |
| CSCC[C@H](N)C(=O)O [Compound G66, L-Methionine] | 234% |
| CCCCCCCCCCCCCCCCCCCCCCCCCCCCO [Compound G-5, Octacosanol] | 307% |
| O=c1c(O)c(-c2ccc(O)c(O)c2)oc2cc(O)cc(O)c12 [Compound G-15, Quercetin] | 118% |
| N[C@@H](CS)C(=O)O [Compound G-22, L-Cysteine] | 363% |
| Cc1ncc(C[n+]2csc(CCO)c2C)c(N)n1 [Compound G-27, Thiamin HCl] | 267% |
| CC(C)(CO)[C@@H](O)C(=O)NCCC(=O)O [Compound G-35, Pantothenic Acid] | 154% |
| C[C@]12CCC(=O)C=C1CC[C@@H]1[C@@H]2CC[C@]2(C)C(=O)CC[C@@H]12 [Compound G-57, Androstenedione] | 219% |
| Bromelain [Compound G126] | 75% |
